The target of one assay is GST-Bcl-2 (Homo sapiens (Human), UniProt P10415). The assay can be described thus: Time Resolved-Fluorescence Resonance Energy Transfer (TR-FRET) Bcl-2 binding assay.
Chain of GST-Bcl-2 (P10415 whole entry): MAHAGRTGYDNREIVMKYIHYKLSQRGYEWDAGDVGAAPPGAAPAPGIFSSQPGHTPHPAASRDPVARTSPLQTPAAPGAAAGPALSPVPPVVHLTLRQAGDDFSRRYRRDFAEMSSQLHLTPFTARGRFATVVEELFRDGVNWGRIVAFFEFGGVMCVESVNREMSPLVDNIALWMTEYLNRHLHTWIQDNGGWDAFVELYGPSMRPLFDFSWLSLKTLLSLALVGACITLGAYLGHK
Details: not given
The method, then: Determination of the utility of compounds having Formula (I) as binders to and inhibitors of anti-apoptotic Bcl-2 proteins was performed using the Time Resolved-Fluorescence Resonance Energy Transfer (TR-FRET) Assay. Tb-anti-GST antibody was purchased from Invitrogen (Catalog No. PV4216).
Representative compounds were serially diluted in dimethyl sulfoxide (DMSO) starting at 50 μM (2× starting concentration; 10% DMSO) and 10 μL were transferred into a 384-well plate. The samples are then mixed on a shaker for 1 minute and incubated for an additional 3 hours at room temperature. For each assay, the probe/antibody and protein/probe/antibody were included on each assay plate as negative and positive controls, respectively. Fluorescence was measured on the Envision (Perkin Elmer) using a 340/35 nm excitation filter and 520/525 (F-Bak peptide) and 495/510 nm (Tb-labeled anti-Histidine antibody) emission filters.
The samples were then mixed on a shaker for 1 minute and incubated for an additional 3 hours at room temperature. For each assay, the probe/antibody and protein/probe/antibody were included on each assay plate as negative and positive controls, respectively. Fluorescence was measured on the Envision (Perkin Elmer) using a 340/35 nm excitation filter and 520/525 (F-Bak peptide) and 495/510 nm (Tb-labeled anti-Histidine antibody) emission filters.
The inhibition constant (Ki) is the dissociation constant of an enzyme-inhibitor complex or a protein/small molecule complex, wherein the small molecule is inhibiting binding of one protein to another protein. So a large Ki value indicates a low binding affinity and a small Ki value indicates a high binding affinity.
As to `CC1(C)CCC(CN2CCN(c3ccc(C(=O)NS(=O)(=O)c4ccc(N[C@H]5CC[C@H](N(C6CC6)C6CC6)CC5)c([N+](=O)[O-])c4)c(Oc4cc5cc[nH]c5cc4F)c3)CC2)=C(c2ccc(Cl)cc2)C1` [Example 334, Trans-4-(4-{[2-(4-chlorophenyl)-4,4-dimethylcyclohex-1-en-1-yl]methyl}piperazin-1-yl)-N-[(4-{[4-(dicyclopropylamino)cyclohexyl]amino}-3-nitrophenyl)sulfonyl]-2-[(6-fluoro-1H-indol-5-yl)oxy]benzamide], the Ki stood at 0.197 nM.

The assay is the same for the next values; noted with them: GST-Bcl-2 1 nM, F-Bak peptide probe 100 nM, Tb-anti-GST antibody 1 nM; Ki by Wang's equation.
For `CC1(C)CCC(CN2CCN(c3ccc(C(=O)NS(=O)(=O)c4cnc(OC[C@@H]5CCN(CC(F)F)C5)c(Cl)c4)c(Oc4cnc(N)c(Cl)c4)c3)CC2)=C(c2ccc(Cl)cc2)C1` [Example 400, 2-[(6-amino-5-chloropyridin-3-yl)oxy]-N-[(5-chloro-6-{[(3R)-1-(2,2-difluoroethyl)pyrrolidin-3-yl]methoxy}pyridin-3-yl)sulfonyl]-4-(4-{[2-(4-chlorophenyl)-4,4-dimethylcyclohex-1-en-1-yl]methyl}piperazin-1-yl)benzamide], the Ki was found to be 0.082 nM. This counts as picomolar.

Consider `CC1(C)CCC(CN2CCN(c3ccc(C(=O)NS(=O)(=O)c4ccc(NC5CCN(C6CCOCC6)CC5)c([N+](=O)[O-])c4)c(Oc4ccnc(NC(=O)OC(C)(C)C)c4)c3)CC2)=C(c2ccc(Cl)cc2)C1` [Example 271, tert-butyl 4-(5-(4-{[2-(4-chlorophenyl)-4,4-dimethylcyclohex-1-en-1-yl]methyl}piperazin-1-yl)-2-{[({3-nitro-4-[(1-tetrahydro-2H-pyran-4-ylpiperidin-4-yl)amino]phenyl}sulfonyl)amino]carbonyl}phenoxy)pyridin-2-ylcarbamate], for which the affinity, expressed as Ki, was 1.91 nM.

On to `Cc1n[nH]c2cccc(Oc3cc(N4CCN(CC5=C(c6ccc(Cl)cc6)CC(C)(C)CC5)CC4)ccc3C(=O)NS(=O)(=O)c3ccc(NCCCN4CCOCC4)c([N+](=O)[O-])c3)c12` [Example 44, 4-(4-((2-(4-chlorophenyl)-4,4-dimethylcyclohex-1-en-1-yl)methyl)piperazin-1-yl)-2-((3-methyl-1H-indazol-4-yl)oxy)-N-((4-((3-morpholin-4-ylpropyl)amino)-3-nitrophenyl)sulfonyl)benzamide], for which affinity was put at a Ki of 0.036 nM.

Regarding `O=C(NS(=O)(=O)c1ccc(NCCCN2CCOCC2)c([N+](=O)[O-])c1)c1ccc(N2CCN(Cc3ccccc3-c3ccc(Cl)cc3)CC2)cc1Oc1cccc(-c2ccncc2)c1` [Example 98, 4-(4-((4′-chloro-1,1′-biphenyl-2-yl)methyl)piperazin-1-yl)-N-((4-((3-morpholin-4-ylpropyl)amino)-3-nitrophenyl)sulfonyl)-2-(3-pyridin-4-ylphenoxy)benzamide], affinity was put at a Ki of 0.959 nM.

Regarding `CC1(C)CC(c2ccc(Cl)cc2)=C(CN2CCN(c3ccc(C(=O)NS(=O)(=O)c4cnc(OCC5CCC(F)(F)CC5)c(Cl)c4)c(Oc4cc5cc[nH]c5cc4F)c3)CC2)CO1` [Example 410, N-({5-chloro-6-[(4,4-difluorocyclohexyl)methoxy]pyridin-3-yl}sulfonyl)-4-(4-{[4-(4-chlorophenyl)-6,6-dimethyl-5,6-dihydro-2H-pyran-3-yl]methyl}piperazin-1-yl)-2-[(6-fluoro-1H-indol-5-yl)oxy]benzamide], the inhibition constant Ki was < 0.01 nM.

`CC1(C)CCC(CN2CCN(c3ccc(C(=O)NS(=O)(=O)c4ccc(NCC5CCOC5)c([N+](=O)[O-])c4)c(Oc4cc5cc[nH]c5cc4F)c3)CC2)=C(c2ccc(Cl)cc2)C1` (centres unmarked) [Example 332, 4-(4-{[2-(4-chlorophenyl)-4,4-dimethylcyclohex-1-en-1-yl]methyl}piperazin-1-yl)-2-[(6-fluoro-1H-indol-5-yl)oxy]-N-({3-nitro-4-[(tetrahydrofuran-3-ylmethyl)amino]phenyl}sulfonyl)benzamide] displayed an inhibition constant (Ki) of 0.034 nM.

As to `CN(C)CCCNc1ccc(S(=O)(=O)NC(=O)c2ccc(N3CCN(CC4=C(c5ccc(Cl)cc5)CC(C)(C)CC4)CC3)cc2Oc2ccccc2Cl)cc1[N+](=O)[O-]` [Example 179, 2-(2-chlorophenoxy)-4-(4-{[2-(4-chlorophenyl)-4,4-dimethylcyclohex-1-en-1-yl]methyl}piperazin-1-yl)-N-[(4-{[3-(dimethylamino)propyl]amino}-3-nitrophenyl)sulfonyl]benzamide], the inhibition constant Ki came out at 0.036 nM.

On to `CC1(C)CCC(CN2CCN(c3ccc(C(=O)NS(=O)(=O)c4ccc(NCC5(F)CCOCC5)c([N+](=O)[O-])c4)c(Oc4cnc(N)c(Cl)c4)c3)CC2)=C(c2ccc(Cl)cc2)C1` [Example 363, 2-[(6-amino-5-chloropyridin-3-yl)oxy]-4-(4-{[2-(4-chlorophenyl)-4,4-dimethylcyclohex-1-en-1-yl]methyl}piperazin-1-yl)-N-[(4-{[(4-fluorotetrahydro-2H-pyran-4-yl)methyl]amino}-3-nitrophenyl)sulfonyl]benzamide], for which the inhibition constant (Ki) is < 0.01 nM.

For the molecule `CC1(C)CCC(CN2CCN(c3ccc(C(=O)NS(=O)(=O)c4ccc(NN5CCOCC5)c([N+](=O)[O-])c4)c(Oc4cccc(Cl)c4)c3)CC2)=C(c2ccc(Cl)cc2)C1` [Example 253, 2-(3-chlorophenoxy)-4-(4-{[2-(4-chlorophenyl)-4,4-dimethylcyclohex-1-en-1-yl]methyl}piperazin-1-yl)-N-{[4-(morpholin-4-ylamino)-3-nitrophenyl]sulfonyl}benzamide], the affinity, expressed as Ki, was 0.05 nM.

The molecule `CC1(C)CCC(CN2CCN(c3ccc(C(=O)NS(=O)(=O)c4ccc(NC5CCN(C6CC6)CC5)c([N+](=O)[O-])c4)c(Oc4ccccc4F)c3)CC2)=C(c2ccc(Cl)cc2)C1` [Example 123, 4-(4-{[2-(4-chlorophenyl)-4,4-dimethylcyclohex-1-en-1-yl]methyl}piperazin-1-yl)-N-({4-[(1-cyclopropylpiperidin-4-yl)amino]-3-nitrophenyl}sulfonyl)-2-(2-fluorophenoxy)benzamide] had a Ki of 0.11 nM.

`CCN(Cc1ccc(Oc2cc(N3CCN(Cc4ccccc4-c4ccc(Cl)cc4)CC3)ccc2C(=O)NS(=O)(=O)c2ccc(NCC3CCOCC3)c([N+](=O)[O-])c2)cc1)C(=O)OC(C)(C)C` [Example 78, tert-butyl 4-(5-(4-((4′-chloro-1,1′-biphenyl-2-yl)methyl)piperazin-1-yl)-2-((((3-nitro-4((tetrahydro-2H-pyran-4-ylmethyl)amino)phenyl)sulfonyl)amino)carbonyl)phenoxy)benzyl(ethyl)carbamate]: the inhibitory constant (Ki) was > 1200 nM.

`CC1(C)CCC(CN2CCN(c3ccc(C(=O)NS(=O)(=O)c4ccc(NCCCN5CCOCC5)c([N+](=O)[O-])c4)c(Oc4cc(Cl)ccc4Cl)c3)CC2)=C(c2ccc(Cl)cc2)C1` [Example 67, 4-(4-((2-(4-chlorophenyl)-4,4-dimethylcyclohex-1-en-1-yl)methyl)piperazin-1-yl)-2-(2,5-dichlorophenoxy)-N-((4-((3-morpholin-4-ylpropyl)amino)-3-nitrophenyl)sulfonyl)benzamide]: the inhibition constant Ki came to 0.807 nM.

`CN1CCC(Nc2ccc(S(=O)(=O)NC(=O)c3ccc(N4CCN(CC5=C(c6ccc(Cl)cc6)CC(C)(C)CC5)CC4)cc3OCc3csc(N)n3)cc2[N+](=O)[O-])CC1` [Example 223, 2-[(2-amino-1,3-thiazol-4-yl)methoxy]-4-(4-{[2-(4-chlorophenyl)-4,4-dimethylcyclohex-1-en-1-yl]methyl}piperazin-1-yl)-N-({4-[(1-methylpiperidin-4-yl)amino]-3-nitrophenyl}sulfonyl)benzamide] registered a Ki of 10.9 nM.

Consider `CN(C)C(=O)CCc1ccccc1Oc1cc(N2CCN(Cc3ccccc3-c3ccc(Cl)cc3)CC2)ccc1C(=O)NS(=O)(=O)c1ccc(NCC2CCOCC2)c([N+](=O)[O-])c1` [Example 26, 4-(4-((4′-chloro-1,1′-biphenyl-2-yl)methyl)piperazin-1-yl)-2-(2-(3-(dimethylamino)-3-oxopropyl)phenoxy)-N-((3-nitro-4-((tetrahydro-2H-pyran-4-ylmethyl)amino)phenyl)sulfonyl)benzamide], for which affinity was put at a Ki of 0.511 nM.

In turn, `CN1CCC(Nc2ccc(S(=O)(=O)NC(=O)c3ccc(N4CCN(CC5=C(c6ccc(Cl)cc6)CC(C)(C)CC5)CC4)cc3Oc3ccccc3Cl)cc2[N+](=O)[O-])CC1` [Example 34, 2-(2-chlorophenoxy)-4-(4-((2-(4-chlorophenyl)-4,4-dimethylcyclohex-1-en-1-yl)methyl)piperazin-1-yl)-N-((4-((1-methylpiperidin-4-yl)amino)-3-nitrophenyl)sulfonyl)benzamide] showed an inhibition constant (Ki) of 0.049 nM.

For `CC1(C)CCC(CN2CCN(c3ccc(C(=O)NS(=O)(=O)c4ccc(NCC5CCOCC5)c([N+](=O)[O-])c4)c(Oc4ccnc(N)c4)c3)CC2)=C(c2ccc(Cl)cc2)C1` [Example 282, 2-[(2-aminopyridin-4-yl)oxy]-4-(4-{[2-(4-chlorophenyl)-4,4-dimethylcyclohex-1-en-1-yl]methyl}piperazin-1-yl)-N-({3-nitro-4-[(tetrahydro-2H-pyran-4-ylmethyl)amino]phenyl}sulfonyl)benzamide], the Ki was determined as 1.01 nM.
